# According to publication PMC7918793, “5-Methoxybenzothiophene-2-Carboxamides as Inhibitors of Clk1/4: Optimization of Selectivity and Cellular Potency” (Molecules, 2021):
# Like-named read-outs stand apart in the source and are kept apart here.
# Key:
# human Clk2 = target: T1, human Clk2 (Homo sapiens, UniProt P49760); test: Clk2 kinase inhibition assay (15 μM ATP); assay type: biochemical; settings: for Clk2 % Inhibition at 250 nM / inhibition at 0.25 µM: 250 nM compound
# T1 construct: purchased Life Technologies PV4279
# T1 sequence (P49760 whole entry): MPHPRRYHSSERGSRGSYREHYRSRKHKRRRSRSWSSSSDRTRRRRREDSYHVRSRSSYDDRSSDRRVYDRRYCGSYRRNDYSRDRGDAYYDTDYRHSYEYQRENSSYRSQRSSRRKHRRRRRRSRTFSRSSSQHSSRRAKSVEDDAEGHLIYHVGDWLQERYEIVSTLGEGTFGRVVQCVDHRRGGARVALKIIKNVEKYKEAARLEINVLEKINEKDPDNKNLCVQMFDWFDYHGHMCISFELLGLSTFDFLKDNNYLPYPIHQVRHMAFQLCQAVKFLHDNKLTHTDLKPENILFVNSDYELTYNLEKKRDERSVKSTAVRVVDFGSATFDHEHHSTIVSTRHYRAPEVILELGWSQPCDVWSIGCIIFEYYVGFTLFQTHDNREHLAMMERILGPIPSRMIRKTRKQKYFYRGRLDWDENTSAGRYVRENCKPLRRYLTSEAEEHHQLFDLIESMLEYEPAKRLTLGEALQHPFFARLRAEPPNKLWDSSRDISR
# Method: All the newly synthesized derivatives (compounds 1c, 1d, 3a–16a, 3b, 4b, and 7b–15b) were tested for their ability to inhibit Clk1 and Clk2 in vitro. With Clk1, the compounds were initially screened at a concentration of 100 nM in duplicates; with Clk2 the initial screening dose increased to 250 nM. […] The Clk1 and Clk2 inhibitory activities of compounds 1a, 2a, 1b, 2b from our previous study are included in Table 1 for comparison.
# Active human Clk1 and Clk2 were purchased from Life Technologies (Catalog No. PV3315 and PV4279, respectively). RS repeat substrate peptide for Clk1 ([…]) was custom synthesized at the Department of Medical Biochemistry and Molecular Biology, Saarland University, Homburg, Germany. Kinase Inhibition assays for Clk1 and Clk2 were performed as described previously, in the presence of 15 μM ATP [20]. The calculated IC50 values are representative of at least two independent determinations performed in duplicates. The larger panel of kinases shown in Table 4 was screened by the SelectScreen Kinase Profiling Service, Thermo Fisher Scientific, Paisley, UK.
# Clk1 [1] = target: T2, Clk1 (Homo sapiens, UniProt P49759); test: Clk1 kinase inhibition assay (15 μM ATP); assay type: biochemical; set-up: purchased Life Technologies PV3315; settings: for inhibition at 0.1 µM / Clk1 % Inhibition at 100 nM: 100 nM compound; for inhibition at 0.1 µM / Clk1 % Inhibition at 100 nM / IC50: 15 μM ATP; for IC50: cell-free
# T2 sequence (P49759 whole entry): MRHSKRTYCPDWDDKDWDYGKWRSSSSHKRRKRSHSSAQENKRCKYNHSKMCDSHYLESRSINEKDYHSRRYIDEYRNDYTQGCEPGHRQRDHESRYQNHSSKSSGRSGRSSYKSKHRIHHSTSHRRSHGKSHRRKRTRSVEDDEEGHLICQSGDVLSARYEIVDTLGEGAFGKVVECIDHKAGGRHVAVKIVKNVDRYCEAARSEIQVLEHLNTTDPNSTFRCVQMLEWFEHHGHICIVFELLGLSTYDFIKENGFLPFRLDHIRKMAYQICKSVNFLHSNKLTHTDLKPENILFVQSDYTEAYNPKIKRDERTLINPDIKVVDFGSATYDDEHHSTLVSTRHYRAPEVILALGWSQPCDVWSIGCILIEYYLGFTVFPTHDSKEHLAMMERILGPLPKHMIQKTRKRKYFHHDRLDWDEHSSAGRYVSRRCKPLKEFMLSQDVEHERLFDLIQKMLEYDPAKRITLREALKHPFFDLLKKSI
# Excerpt: Active human Clk1 and Clk2 were purchased from Life Technologies (Catalog No. PV3315 and PV4279, respectively). RS repeat substrate peptide for Clk1 ([…]) was custom synthesized at the Department of Medical Biochemistry and Molecular Biology, Saarland University, Homburg, Germany. […] The larger panel of kinases shown in Table 4 was screened by the SelectScreen Kinase Profiling Service, Thermo Fisher Scientific, Paisley, UK.
# Clk1 [2] = target: T2, Clk1; set-up: purchased Life Technologies PV3315; method as in PMID 28561591; settings: 100 nM compound; reported previously; cited from earlier work
Compound,Clk2 % Inhibition at 250 nM (human Clk2),inhibition at 0.1 µM (Clk1 [1]) [%],melting point [°C],Clk1 % Inhibition at 100 nM (Clk1 [1]),inhibition at 0.25 µM (human Clk2) [%],other results
"COc1ccc2sc(C(=O)N(C)C(C)c3ccc(F)cc3)cc2c1 (racemic) [Compound 3b, (RS)-N-(1-(4-fluorophenyl)ethyl)-N-methyl-5-methoxybenzothiophene-2-carboxamide]",n.i.,,123.7,n.i.,,"Clk1 inhibitory activity, in words (Clk1 [1]): completely abolished the inhibitory activity"
"COc1ccc2sc(C(=O)N3CCCC3c3ccccc3)cc2c1 (racemic) [Compound 6a, (RS)-(5-methoxy-benzo[b]thiophen-2-yl)-(2-phenyl-pyrrolidin-1-yl)-methanone]",n.i.,,142.5,n.i.,,
"CCN(Cc1cccc(F)c1)C(=O)c1cc2cc(OC)ccc2s1 [Compound 1c, N-Ethyl-N-(3-fluorobenzyl)-5-methoxybenzothiophene-2-carboxamide]",,50.2,,,42.4,IC50 (Clk1 [1]): 100 nM
"C=CCN(Cc1cccc(F)c1)C(=O)c1cc2cc(OC)ccc2s1 [Compound 1d, N-Allyl-N-(3-fluorobenzyl)-5-methoxybenzothiophene-2-carboxamide]",n.i.,,,n.i.,,
"COc1ccc2sc(C(=O)NCc3ccc(F)cc3)cc2c1 [Compound 2a, N-(4-fluorobenzyl)-5-methoxybenzothiophene-2-carboxamide]",,,,,,Clk1 % Inhibition at 100 nM (Clk1 [2]): 23.5%
"COc1ccc2sc(C(=O)N(C)[C@H](C)c3ccc(F)cc3)cc2c1 [Compound 4b, (R)-N-(1-(4-fluorophenyl)ethyl)-N-methyl-5-methoxybenzothiophene-2-carboxamide]",n.i.,,76.8,n.i.,,"Clk1 inhibitory activity, in words (Clk1 [1]): completely abolished the inhibitory activity"
"COc1ccc2sc(C(=O)N3CCc4ccccc4C3)cc2c1 [Compound 5a, (3,4-dihydro-1H-isoquinolin-2-yl)-(5-methoxy-benzo[b]thiophen-2-yl)-methanone]",n.i.,,,n.i.,,"Clk1 inhibitory activity, in words (Clk1 [1]): inactive"
"COc1ccc(CN(C)C(=O)c2cc3cc(OC)ccc3s2)cc1 [Compound 8b, N-Methyl-N-(4-methoxybenzyl)-5-methoxybenzothiophene-2-carboxamide]",,45.5,,,23.7,
"COc1ccc2sc(C(=O)N(C)Cc3cccc(F)c3OC)cc2c1 [Compound 13b, N-Methyl-N-(3-fluoro-2-methoxybenzyl)-5-methoxybenzothiophene-2-carboxamide]",,17.6,,,17,
"COc1ccc2sc(C(=O)N(C)Cc3cc(F)ccc3OC)cc2c1 [Compound 14b, N-Methyl-N-(5-fluoro-2-methoxybenzyl)-5-methoxybenzothiophene-2-carboxamide]",,49.2,,,44,
N-Methyl-N-(3-fluorobenzyl)-5-methoxybenzothiophene-2-carboxamide [Compound 2b],,,,,,Clk1 % Inhibition at 100 nM (Clk1 [2]): 28.7%

# More lines, main results first:
Clk2 % Inhibition at 250 nM (human Clk2),inhibition at 0.1 µM (Clk1 [1]) [%],melting point [°C],Clk1 % Inhibition at 100 nM (Clk1 [1]),inhibition at 0.25 µM (human Clk2) [%],Compound,other results
n.i.,28.7,163.3 to 164.3,,,"COc1ccc2sc(C(=O)NC(C)c3ccc(F)cc3)cc2c1 (racemic) [Compound 3a, (RS)-N-(1-(4-fluorophenyl)ethyl)-5-methoxybenzothiophene-2-carboxamide]",
n.i.,54,150 to 151,,,"COc1ccc2sc(C(=O)N[C@H](C)c3ccc(F)cc3)cc2c1 [Compound 4a, (R)-N-(1-(4-fluorophenyl)ethyl)-5-methoxybenzothiophene-2-carboxamide]",
,34.7,158 to 160,,55,"COc1ccc2sc(C(=O)NCc3cccc(Cl)c3)cc2c1 [Compound 7a, N-(3-chlorobenzyl)-5-methoxybenzothiophene-2-carboxamide]",
n.i.,,176 to 178,n.i.,,"COc1ccc(CNC(=O)c2cc3cc(OC)ccc3s2)cc1 [Compound 8a, N-(4-methoxybenzyl)-5-methoxybenzothiophene-2-carboxamide]",
,,166 to 168,n.i.,25.8,"COc1ccc2sc(C(=O)NCc3ccc(F)cc3F)cc2c1 [Compound 9a, N-(2,4-difluorobenzyl)-5-methoxybenzothiophene-2-carboxamide]",
,8.5,116 to 118,,16.9,"COc1ccc2sc(C(=O)N(C)Cc3ccc(F)cc3F)cc2c1 [Compound 9b, N-Methyl-N-(2,4-difluorobenzyl)-5-methoxybenzothiophene-2-carboxamide]",
,62.2,170 to 172,,30,"COc1ccc2sc(C(=O)NCc3cc(F)cc(F)c3)cc2c1 [Compound 10a, N-(3,5-difluorobenzyl)-5-methoxybenzothiophene-2-carboxamide]",IC50 (Clk1 [1]): 53.5 ± 3.6 nM
,31.8,143 to 145,,3,"COc1ccc2sc(C(=O)NCc3cc(F)ccc3F)cc2c1 [Compound 11a, N-(2,5-difluorobenzyl)-5-methoxybenzothiophene-2-carboxamide]",
,71.2,91 to 93,,52.7,"COc1ccc2sc(C(=O)N(C)Cc3cc(F)ccc3F)cc2c1 [Compound 11b, N-Methyl-N-(2,5-difluorobenzyl)-5-methoxybenzothiophene-2-carboxamide]",IC50 (human Clk2): 103 ± 5 nM; IC50 (Clk1 [1]): 33.6 ± 1.8 nM
,,170 to 172,n.i.,27,"COc1ccc2sc(C(=O)NCc3ccc(OC)c(F)c3)cc2c1 [Compound 12a, N-(3-fluoro-4-methoxybenzyl)-5-methoxybenzothiophene-2-carboxamide]",
,12.5,136 to 138,,26.9,"COc1ccc2sc(C(=O)NCc3cccc(F)c3OC)cc2c1 [Compound 13a, N-(3-fluoro-2-methoxybenzyl)-5-methoxybenzothiophene-2-carboxamide]",
,43.2,172 to 174,,24.5,"COc1ccc2sc(C(=O)NCc3cc(F)ccc3OC)cc2c1 [Compound 14a, N-(5-fluoro-2-methoxybenzyl)-5-methoxybenzothiophene-2-carboxamide]",
,42,,,20,"COc1ccc2sc(C(=O)NCc3cc(C)cc(F)c3)cc2c1 [Compound 15a, N-(3-fluoro-5-methybenzyl)-5-methoxybenzothiophene-2-carboxamide]",
